Results published in ChEMBL document CHEMBL1141370, “Biologically active triterpenoid saponins from Ardisia japonica” (J Nat Prod, 2007).

Experiments:
Assay type in all cases: cell-based
[1] = Cytotoxicity against human KATO3 cell line by MTT assay
HL-60 = assay: Cytotoxicity against human HL60 cell line by MTT assay
A549 = assay: Cytotoxicity against human A549 cell line by MTT assay

In the case of `C[C@@H]1O[C@@H](O[C@H]2[C@H](O[C@H]3CO[C@@H](O[C@H]4CC[C@]5(C)[C@H]6CC=C7[C@@H]8C[C@@](C)(CO)CC[C@]8(CO)[C@@H]8O[C@@H]8[C@@]7(C)[C@]6(C)CC[C@H]5C4(C)C)[C@H](O[C@@H]4O[C@H](CO)[C@@H](O)[C@H](O)[C@H]4O)[C@H]3O)O[C@H](CO)[C@@H](O)[C@@H]2O)[C@H](O)[C@H](O)[C@H]1O` [ARDISIANOSIDE K], the IC50 [1] is reported as > 100 µM, the IC50 (HL-60) is reported as > 100 µM and the IC50 (A549) is reported as > 100 µM.

For `CC1(C)CC[C@]23CO[C@@]4(CC[C@@H]5[C@@]6(C)CC[C@H](O[C@@H]7OC[C@H](O[C@@H]8O[C@H](CO)[C@@H](O)[C@H](O[C@@H]9O[C@H](CO)[C@@H](O[C@@H]%10O[C@H](CO)[C@@H](O)[C@H](O)[C@H]%10O)[C@H](O[C@@H]%10O[C@H](CO)[C@@H](O)[C@H](O)[C@H]%10O)[C@H]9O)[C@H]8O[C@@H]8OC[C@@H](O)[C@H](O)[C@H]8O)[C@H](O)[C@H]7O[C@@H]7O[C@H](CO)[C@@H](O)[C@H](O)[C@H]7O)C(C)(C)[C@@H]6CC[C@@]5(C)[C@]4(C)C[C@H]2O)[C@@H]3C1` [ARDISIANOSIDES A], the IC50 [1] was 0.4 µM, the IC50 (HL-60) was 2.7 µM and the IC50 (A549) was 6 µM.

For `C[C@@H]1O[C@@H](O[C@H]2[C@H](O[C@H]3CO[C@@H](O[C@H]4CC[C@]5(C)[C@H]6CC[C@]78OC[C@@]9(CC[C@](C)(CO)C[C@H]97)[C@H](O)C[C@@]8(C)[C@]6(C)CC[C@H]5C4(C)C)[C@H](O[C@@H]4O[C@H](CO)[C@@H](O)[C@H](O)[C@H]4O)[C@H]3O)O[C@H](CO)[C@@H](O)[C@@H]2O)[C@H](O)[C@H](O)[C@H]1O` [ARDISICRENOSIDE A], the IC50 [1] was 14.5 µM, the IC50 (HL-60) was > 100 µM and the IC50 (A549) was > 100 µM.

`CC1(C)[C@@H](O[C@@H]2OC[C@H](O[C@@H]3O[C@H](CO)[C@@H](O)[C@H](O[C@@H]4O[C@H](CO)[C@@H](O)[C@H](O)[C@H]4O)[C@H]3O[C@@H]3OC[C@@H](O)[C@H](O)[C@H]3O)[C@H](O)[C@H]2O[C@@H]2O[C@H](CO)[C@@H](O)[C@H](O)[C@H]2O)CC[C@]2(C)[C@H]3CC[C@]45OC[C@@]6(CC[C@](C)(C=O)C[C@H]64)[C@H](O)C[C@@]5(C)[C@]3(C)CC[C@@H]12` [CYCLAMIN] showed an IC50 [1] of 0.3 µM, an IC50 (HL-60) of 3 µM and an IC50 (A549) of 3.3 µM.

Compound `C[C@@H]1O[C@@H](O[C@H]2[C@H](O[C@H]3CO[C@@H](O[C@H]4CC[C@]5(C)[C@H]6CC[C@]78OC[C@@]9(CC[C@](C)(C=O)C[C@H]97)[C@H](O)C[C@@]8(C)[C@]6(C)CC[C@H]5C4(C)C)[C@H](O)[C@H]3O)O[C@H](CO)[C@@H](O)[C@@H]2O)[C@H](O)[C@H](O)[C@H]1O` [CYCLAMIRETIN A] has an IC50 [1] of 1.7 µM, an IC50 (HL-60) of 18.1 µM and an IC50 (A549) of 29.2 µM.

For `COc1cc([C@@H]2c3cc4c(cc3[C@@H](O[C@@H]3O[C@@H]5CO[C@@H](C)O[C@H]5[C@H](O)[C@H]3O)[C@H]3COC(=O)[C@H]23)OCO4)cc(OC)c1O` [ETOPOSIDE], the IC50 [1] was 0.1 µM, the IC50 (HL-60) was 0.3 µM and the IC50 (A549) was 20.9 µM.

In the case of `CC1(C)[C@@H](O[C@@H]2OC[C@H](O[C@@H]3O[C@H](CO)[C@@H](O)[C@H](O)[C@H]3O[C@@H]3OC[C@@H](O)[C@H](O)[C@H]3O)[C@H](O)[C@H]2O)CC[C@]2(C)[C@H]3CC[C@]45OC[C@@]6(CC[C@](C)(C=O)C[C@H]64)[C@H](O)C[C@@]5(C)[C@]3(C)CC[C@@H]12` [PRIMULANIN], the IC50 [1] is reported as 3.3 µM, the IC50 (HL-60) is reported as 24.7 µM and the IC50 (A549) is reported as 27.7 µM.
